Laboratory results: the NIST ThermoML archive (doi:10.1016/j.jct.2008.04.010)
Several values for one entry are separate records, joined by “and”; a condition that tells them apart may be missing. Identical values can stand only once.

Columns and labels:
[1] = molar enthalpy of vaporization or sublimation; conditions: 298.15 K; Liquid; Calvet microcalorimetry
[2] = for vapor or sublimation pressure: Calculated from knudsen effusion weight loss; for Normal melting temperature: DTA
[3] = Molar enthalpy of transition or fusion; conditions: Crystal; DSC

c1ccc(-c2cccc3ccccc23)cc1 [1-phenylnaphthalene]
Conditions | molar enthalpy [kcal/mol]
[1] | 19.4

c1ccc(-c2cccc(-c3ccc4ccccc4c3)c2)cc1 [2-(biphen-3-yl)naphthalene]
[2], Liquid
Conditions | vapor or sublimation pressure
381.08 K | 8.1e-05 kPa and 8.3e-05 kPa
385.17 K | 0.000117 kPa
389.15 K | 0.000174 kPa
389.17 K | 0.000177 kPa
393.18 K | 0.000216 kPa and 0.000218 kPa and 0.000223 kPa
397.15 K | 0.000323 kPa and 0.000303 kPa
397.17 K | 0.000315 kPa
401.14 K | 0.00041 kPa and 0.000429 kPa and 0.000427 kPa
405.18 K | 0.000546 kPa and 0.000585 kPa and 0.000588 kPa
409.08 K | 0.000767 kPa and 0.000773 kPa and 0.00079 kPa
413.17 K | 0.001087 kPa and 0.001156 kPa

Conditions | Normal melting temperature [°C]
[2], Crystal | 73.2

Conditions | Molar enthalpy of transition or fusion [kcal/mol]
[3] | 4.42

c1ccc(-c2ccc(-c3ccc4ccccc4c3)cc2)cc1 [2-(biphen-4-yl)naphthalene]
[2], Crystal
Conditions | vapor or sublimation pressure
405.17 K | 6.2e-05 kPa and 6.3e-05 kPa
409.14 K | 9.1e-05 kPa and 8.8e-05 kPa and 8.9e-05 kPa
411.18 K | 0.000111 kPa and 0.000112 kPa
413.18 K | 0.000131 kPa and 0.000135 kPa and 0.000134 kPa
415.14 K | 0.000164 kPa and 0.00016 kPa and 0.000161 kPa
417.19 K | 0.000197 kPa
419.09 K | 0.000237 kPa and 0.000235 kPa and 0.00023 kPa
421.14 K | 0.000283 kPa and 0.00028 kPa
423.09 K | 0.000339 kPa and 0.000342 kPa and 0.000336 kPa
425.19 K | 0.000418 kPa and 0.000424 kPa and 0.000416 kPa
429.21 K | 0.000609 kPa and 0.000597 kPa
433.15 K | 0.000855 kPa and 0.000839 kPa
437.19 K | 0.001171 kPa and 0.001222 kPa and 0.001194 kPa

Conditions | Normal melting temperature [°C]
[2], Crystal | 216.4

Conditions | Molar enthalpy of transition or fusion [kcal/mol]
[3] | 6

c1ccc(-c2ccc3ccccc3c2)cc1 [2-phenylnaphthalene]
[2], Crystal
Conditions | vapor or sublimation pressure
333.11 K | 0.000132 kPa and 0.000137 kPa
335.63 K | 0.000185 kPa and 0.000183 kPa and 0.00018 kPa
338.2 K | 0.000244 kPa and 0.000239 kPa
340.61 K | 0.00032 kPa and 0.000316 kPa and 0.000318 kPa
343.13 K | 0.00042 kPa and 0.000421 kPa and 0.000419 kPa
345.69 K | 0.000558 kPa and 0.000553 kPa and 0.000544 kPa
348.12 K | 0.000729 kPa and 0.000707 kPa and 0.000716 kPa
350.62 K | 0.000939 kPa and 0.000941 kPa and 0.000909 kPa
353.19 K | 0.001212 kPa and 0.001224 kPa and 0.001185 kPa

Conditions | Normal melting temperature [°C]
[2], Crystal | 100.4

Conditions | Molar enthalpy of transition or fusion [kcal/mol]
[3] | 4.28
